Our source for the inhibition and IC50 values is patent publication US8796244B2, “Imidazopyridine derivatives as inhibitors of receptor tyrosine kinases” (Astex Therapeutics Ltd, priority 2008, dated 2014).

Structures can show the parent of a compound that is named as a salt. Where two headings read alike, the source gives them in different places.

For assay [1], the system named is parental wild-type Ba/F3 cells. In words: Ba/F3 (WT) cell proliferation assay (Alamar Blue). The assay is classed as cell-based. As to conditions: Mus musculus; for inhibition at 3 µM / inhibition at 10 µM / inhibition at 1 µM: BaF3, read-out: BaF3 WT prolif, % inhibition. (Resazurin is reduced to fluorescent resorufin, in cell work by metabolically active cells.)

In assay [2] the target is VEGFR2 (Homo sapiens (Human), UniProt P35968). The assay is described as follows: VEGFR2 in vitro kinase inhibitory activity assay (TRF, Flt3 substrate). In kind it is biochemical.
The test system of assay [3] is LP-1 cell line (FGF-1/Heparin induced pERK). In words: Cell-based pERK ELISA, LP-1 cells. Particulars: Homo sapiens, LP-1, read-out: LP-1 pERK ELISA (μM).
The mark [4] stands for this setting: BaF3, 72 hours, Alamar Blue, read-out: BaF3 WT prolif.

VEGFR2, sequence (P35968 20-1356): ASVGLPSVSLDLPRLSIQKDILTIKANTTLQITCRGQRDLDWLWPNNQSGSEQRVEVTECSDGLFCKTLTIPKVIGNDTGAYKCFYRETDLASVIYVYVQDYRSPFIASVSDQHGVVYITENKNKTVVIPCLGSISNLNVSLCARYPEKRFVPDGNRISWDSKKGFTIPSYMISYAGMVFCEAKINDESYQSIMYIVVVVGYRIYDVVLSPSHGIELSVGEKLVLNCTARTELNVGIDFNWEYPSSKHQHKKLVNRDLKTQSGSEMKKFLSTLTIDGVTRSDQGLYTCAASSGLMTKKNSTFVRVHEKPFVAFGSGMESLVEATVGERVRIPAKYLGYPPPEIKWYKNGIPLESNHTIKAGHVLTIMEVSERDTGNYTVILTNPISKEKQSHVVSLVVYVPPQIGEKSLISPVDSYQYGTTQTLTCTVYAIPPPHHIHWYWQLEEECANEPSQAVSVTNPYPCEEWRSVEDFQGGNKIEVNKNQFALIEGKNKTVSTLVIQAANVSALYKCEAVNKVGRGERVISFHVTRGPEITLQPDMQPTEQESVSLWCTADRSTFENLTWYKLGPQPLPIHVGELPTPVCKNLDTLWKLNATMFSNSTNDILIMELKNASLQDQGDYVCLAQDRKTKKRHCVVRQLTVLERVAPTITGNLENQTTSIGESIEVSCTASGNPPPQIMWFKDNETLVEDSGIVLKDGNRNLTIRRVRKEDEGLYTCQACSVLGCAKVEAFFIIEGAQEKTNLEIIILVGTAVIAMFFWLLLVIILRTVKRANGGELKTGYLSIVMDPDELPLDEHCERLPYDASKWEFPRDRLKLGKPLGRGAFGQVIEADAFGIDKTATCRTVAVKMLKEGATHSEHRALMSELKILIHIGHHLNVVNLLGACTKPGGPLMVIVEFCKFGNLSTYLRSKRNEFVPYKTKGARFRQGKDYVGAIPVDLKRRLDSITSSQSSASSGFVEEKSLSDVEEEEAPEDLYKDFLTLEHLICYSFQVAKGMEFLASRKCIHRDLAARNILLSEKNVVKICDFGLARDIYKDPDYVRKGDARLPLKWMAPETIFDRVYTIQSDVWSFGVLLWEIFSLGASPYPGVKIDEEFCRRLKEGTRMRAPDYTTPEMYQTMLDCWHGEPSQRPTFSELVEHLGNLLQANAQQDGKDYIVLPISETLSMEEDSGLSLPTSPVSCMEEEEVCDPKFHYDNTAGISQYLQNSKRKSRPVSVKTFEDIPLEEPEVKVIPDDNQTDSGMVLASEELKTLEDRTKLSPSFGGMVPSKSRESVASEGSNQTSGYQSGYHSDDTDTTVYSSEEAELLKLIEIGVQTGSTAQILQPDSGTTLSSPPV

Regarding `Nc1nc(-c2ccn3c(-c4cc(NC(=O)NCC(F)(F)F)ccc4F)cnc3c2)ncc1F` [Compound 311], in assay [1], the inhibition at 3 µM stood at 2% and the inhibition at 10 µM is 32%. In addition, the inhibition at 0.978 µM in assay [2] (1 h, read-out: VEGFR2 % I) was 20%.

Turning to `CCN(CC)CCc1nnc(-c2ccn3c(-c4cccc(NC(=O)NCC(F)(F)F)c4)cnc3c2)s1` [Example 246], the IC50 in assay [1] (setting [4]) worked out at 1 µM. In assay [2] (1 h, read-out: VEGFR2 % I), the inhibition at 0.3 µM was found to be 45%.

As to `Nc1cc(Cl)cnc1-c1ccn2c(-c3cccc(NC(=O)NCC(F)(F)F)c3)cnc2c1` [Example 146, 1-{3-[7-(3-Amino-5-chloro-pyridin-2-yl)-imidazo[1,2-a]pyridin-3-yl]-phenyl}-3-(2,2,2-trifluoro-ethyl)-urea], in assay [1], the inhibition at 10 µM turned out to be 1.2%. Besides, in assay [2] (1 h, read-out: VEGFR2 % I), the inhibition at 1 µM stood at 51%.

Turning to `Cc1cc(C)nc(-c2ccn3c(-c4cccc(NC(=O)NCC(F)(F)F)c4)cnc3c2)n1` [Example 160], the inhibition at 1 µM in assay [2] (1 h, read-out: VEGFR2 % I) turned out to be 49.5%.

As to `CC(C)(C)OC(=O)NC1CN(c2ccnc(-c3ccn4c(-c5cccc(NC(=O)NCC(F)(F)F)c5)cnc4c3)n2)C1` [Example 193], the IC50 in assay [1] (setting [4]) turned out to be 1.5 µM. The inhibition at 0.89 µM in assay [2] (1 h, at 0.89 μM, read-out: VEGFR2 % I) was 36%. Moreover, in assay [2] (1 h, at 3.11 μM, read-out: VEGFR2 % I), the inhibition at 3.11 µM was found to be 48%.

In the case of `CCNC(=O)Nc1cccc(-c2cnc3cc(-c4ccnc(C(F)(F)F)n4)ccn23)c1` [Example 239], in assay [1], the inhibition at 3 µM amounted to 26%. The inhibition at 1 µM in assay [2] (1 h, read-out: VEGFR2 % I) worked out at 49%.

With `O=C(NCC(F)(F)F)Nc1cccc(-c2cnc3cc(-c4ccc(C(=O)N5CCOCC5)cn4)ccn23)c1` [Example 223], the inhibition at 3 µM in assay [1] is 45%. Moreover, in assay [2] (1 h, read-out: VEGFR2 % I), the inhibition at 0.3 µM is 39%.

With `Nc1ncc(C(F)(F)F)c(-c2ccn3c(-c4cccc(NC(=O)NCC(F)(F)F)c4)cnc3c2)n1` [Example 179], the inhibition at 1 µM in assay [1] was 22%. Moreover, in assay [2], the IC50 was greater than 10000 nM.

Consider `CC(=O)N1CC(n2cc(-c3ccn4c(-c5cccc(NC(=O)NCC(F)(F)F)c5)cnc4c3)cn2)C1` [Example 212], for which the inhibition at 3 µM in assay [1] came out at 10%. The IC50 in assay [2] is greater than 300 nM.

Consider `COCCOc1cc(NC(=O)NCC(F)(F)F)cc(-c2cnc3cc(-c4ncc(F)c(N)n4)ccn23)c1` [Compound 285], for which, in assay [1], the inhibition at 1 µM was determined as 12% and the inhibition at 10 µM stood at 10%. Further, the inhibition at 3 µM in assay [2] (1 h, at 3 μM, read-out: VEGFR2 % I) turned out to be 51%.

On to `Cc1ccc(NC(=O)NCC(F)(F)F)cc1-c1cnc2cc(C#Cc3cncn3C)ccn12` [Compound 326], for which the inhibition at 10 µM in assay [1] turned out to be 18%. The inhibition at 0.978 µM in assay [2] (1 h, read-out: VEGFR2 % I) worked out at 45%.

Regarding `Nc1ccnc(-c2ccn3c(-c4cccc(NC(=O)NCC(F)(F)F)c4)cnc3c2)n1` [Example 110, 1-{3-[7-(4-Amino-pyrimidin-2-yl)-imidazo[1,2-a]pyridin-3-yl]-phenyl}-3-(2,2,2-trifluoro-ethyl)-urea], the IC50 in assay [3] was determined as 0.0917 µM. Besides, the inhibition at 10 µM in assay [1] was determined as 43%.

For the compound `O=C(NCC(F)(F)F)Nc1cccc(-c2cnc3cc(-c4ncc(F)cn4)ccn23)c1` [Example 60, 1-{3-[7-(5-Fluoro-pyrimidin-2-yl)-imidazo[1,2-a]pyridin-3-yl]-phenyl}-3-(2,2,2-trifluoro-ethyl)-urea hydrochloride], the IC50 in assay [3] came to 0.087 µM. The inhibition at 10 µM in assay [1] turned out to be 0%.

For `CCNC(=O)Nc1cccc(-c2cnc3cc(-c4ncccn4)ccn23)c1` [Compound 280], in assay [3], the IC50 stood at 0.35 µM. Also, in assay [1], the inhibition at 3 µM is 74%.

Consider `O=C(NCC(F)(F)F)Nc1cccc(-c2cnc3cc(-c4nnc(CCN5CCCCC5)s4)ccn23)c1` [Example 22, 1-(3-{7-[5-(2-Piperidin-1-ylethyl)-[1,3,4]thiadiazol-2-yl]imidazo[1,2-a]pyridin-3-yl}phenyl)-3-(2,2,2-trifluoroethyl)urea hydrochloride], for which the IC50 came to 0.0044 µM in assay [3] and 1.1 µM in assay [1] (BaF3, 72 h, read-out: BaF3 WT prolif (μM)).

As to `COc1cccc(-c2ccn3c(-c4cccc(NC(=O)NCC(F)(F)F)c4)cnc3c2)n1` [Example 101, 1-{3-[7-(6-Methoxy-pyridin-2-yl)-imidazo[1,2-a]pyridin-3-yl]-phenyl}-3-(2,2,2-trifluoro-ethyl)-urea], the IC50 in assay [3] was determined as 0.055 µM; in assay [1] (setting [4]) it was 0.16 µM.
